Data: patent US20020055528A1, “Artemisinin analogs having antimalarial, antiproliferative, and antitumor activities and chemoselective methods of making the same” (priority 1999, published 2002)

Legend:
Format in all cases: cell-based
[1] = system: 786-0; assay: NCI 60 cell line screen (SRB), Renal Cancer
[2] = system: MB231/ATCC (second line of the wrapped label, with values of its own); assay: NCI 60 cell line screen (SRB), Breast Cancer
[3] = system: SNB-19; assay: NCI 60 cell line screen (SRB), CNS Cancer; details: PG=0
[4] = system: RXF 393; assay: NCI 60 cell line screen (SRB), Renal Cancer
[5] = system: SR; assay: NCI 60 cell line screen (SRB), Leukemia
[6] = system: COLO 205; assay: NCI 60 cell line screen (SRB), Colon Cancer
[7] = system: MALME-3M; assay: NCI 60 cell line screen (SRB), Melanoma
[8] = system: SNB-75; assay: NCI 60 cell line screen (SRB), CNS Cancer; details: PG=0
[9] = system: OVCAR-8; assay: NCI 60 cell line screen (SRB), Ovarian Cancer
[10] = system: SK-MEL2; assay: NCI 60 cell line screen (SRB), Melanoma; details: PG=0
[11] = system: NCI-H226; assay: NCI 60 cell line screen (SRB), Non-Small Cell Lung Cancer
[12] = system: OVCAR-5; assay: NCI 60 cell line screen (SRB), Ovarian Cancer
[13] = system: BT-549; assay: NCI 60 cell line screen (SRB), Breast Cancer
[14] = system: ACHN; assay: NCI 60 cell line screen (SRB), Renal Cancer; details: PG=0
[15] = system: MDA-MB231/ATCC; assay: NCI 60 cell line screen (SRB), Breast Cancer; details: MDA- (first line of MDA-MB231/ATCC); PG=0
[16] = system: TK-10; assay: NCI 60 cell line screen (SRB), Renal Cancer
[17] = system: NCI-H522; assay: NCI 60 cell line screen (SRB), Non-Small Cell Lung Cancer
[18] = system: KM12; assay: NCI 60 cell line screen (SRB), Colon Cancer
[19] = system: MDA-MB-435; assay: NCI 60 cell line screen (SRB), Breast Cancer
[20] = system: NCI-H322M; assay: NCI 60 cell line screen (SRB), Non-Small Cell Lung Cancer
[21] = system: HOP-62; assay: as above
[22] = system: SW-620; assay: NCI 60 cell line screen (SRB), Colon Cancer; details: PG=0
[23] = system: EKVX; assay: NCI 60 cell line screen (SRB), Non-Small Cell Lung Cancer
[24] = system: UACC-62; assay: NCI 60 cell line screen (SRB), Melanoma
[25] = system: HT29; assay: NCI 60 cell line screen (SRB), Colon Cancer
[26] = system: MCF7; assay: NCI 60 cell line screen (SRB), Breast Cancer
[27] = system: U251; assay: NCI 60 cell line screen (SRB), CNS Cancer
[28] = system: IGROVI; assay: NCI 60 cell line screen (SRB), Ovarian Cancer
[29] = system: RPMI-8226; assay: NCI 60 cell line screen (SRB), Leukemia

C[C@@H]1CC[C@H]2[C@@H](C)C(=O)O[C@@H]3O[C@]4(C)CC[C@@H]1[C@]32OO4 [Artemisinin, artemisinin]
Log10TGI ([1]; PG=0): >−4.00 log10M | Log10GI50 ([1]; PG=+50): >−4.00 log10M | Log10GI50 ([1]; Table IV (LC50, PG=−50)): >−4.00 log10M | Log10TGI ([2]; PG=0): >−4.00 log10M | Log10GI50 ([2]; PG=+50): >−4.00 log10M | Log10GI50 ([2]; Table IV (LC50, PG=−50)): >−4.00 log10M | Log10TGI [3]: >−4.00 log10M | Log10TGI ([4]; PG=0): >−4.00 log10M | Log10GI50 ([4]; PG=+50): −4.08 log10M | Log10GI50 ([4]; Table IV (LC50, PG=−50)): >−4.00 log10M | Log10TGI ([5]; PG=0): >−4.00 log10M | Log10GI50 ([5]; PG=+50): >−4.00 log10M | Log10GI50 ([5]; Table IV (LC50, PG=−50)): >−4.00 log10M | Log10TGI ([6]; PG=0): >−4.00 log10M | Log10GI50 ([6]; PG=+50): >−4.00 log10M | Log10GI50 ([6]; Table IV (LC50, PG=−50)): >−4.00 log10M | Log10TGI ([7]; PG=0): −4.06 log10M | Log10GI50 ([7]; Table IV (LC50, PG=−50)): >−4.00 log10M | Log10TGI [8]: >−4.00 log10M | Log10TGI ([9]; PG=0): >−4.00 log10M | Log10GI50 ([9]; PG=+50): >−4.00 log10M | Log10GI50 ([9]; Table IV (LC50, PG=−50)): >−4.00 log10M | Log10TGI [10]: >−4.00 log10M | Log10TGI ([11]; PG=0): >−4.00 log10M | Log10GI50 ([11]; PG=+50): >−4.00 log10M | Log10GI50 ([11]; Table IV (LC50, PG=−50)): >−4.00 log10M | Log10TGI ([12]; PG=0): >−4.00 log10M | Log10GI50 ([12]; PG=+50): >−4.00 log10M | Log10GI50 ([12]; Table IV (LC50, PG=−50)): >−4.00 log10M | Log10TGI ([13]; PG=0): >−4.00 log10M | Log10GI50 ([13]; Table IV (LC50, PG=−50)): >−4.00 log10M | Log10TGI [14]: >−4.00 log10M | Log10TGI [15]: −4.00 log10M | Log10TGI ([16]; PG=0): >−4.00 log10M | Log10GI50 ([16]; PG=+50): >−4.00 log10M | Log10GI50 ([16]; Table IV (LC50, PG=−50)): >−4.00 log10M | Log10TGI ([17]; PG=0): >−4.00 log10M | Log10GI50 ([17]; PG=+50): >−4.00 log10M | Log10GI50 ([17]; Table IV (LC50, PG=−50)): >−4.00 log10M | Log10TGI ([18]; PG=0): >−4.00 log10M | Log10GI50 ([18]; PG=+50): >−4.00 log10M | Log10GI50 ([18]; Table IV (LC50, PG=−50)): >−4.00 log10M | Log10TGI ([19]; MDA-MB-435, PG=0): >−4.00 log10M | Log10GI50 ([19]; MDA-MB−435, PG=+50): >−4.00 log10M | Log10GI50 ([19]; Table IV (LC50, PG=−50), MDA-MB-435): >−4.00 log10M | Log10TGI ([20]; PG=0): >−4.00 log10M | Log10GI50 ([20]; PG=+50): >−4.00 log10M | Log10TGI ([21]; PG=0): >−4.00 log10M | Log10GI50 ([21]; PG=+50): >−4.00 log10M | Log10GI50 ([21]; Table IV (LC50, PG=−50)): >−4.00 log10M | Log10TGI [22]: >−4.00 log10M | Log10TGI ([23]; PG=0): >−4.00 log10M | Log10GI50 ([23]; PG=+50): −4.17 log10M | Log10GI50 ([23]; Table IV (LC50, PG=−50)): >−4.00 log10M | Log10TGI ([24]; PG=0): >−4.00 log10M | Log10GI50 ([24]; PG=+50): >−4.00 log10M | Log10GI50 ([24]; Table IV (LC50, PG=−50)): >−4.00 log10M | Log10TGI ([25]; PG=0): >−4.00 log10M | Log10GI50 ([25]; PG=+50): >−4.00 log10M | Log10GI50 ([25]; Table IV (LC50, PG=−50)): >−4.00 log10M | Log10TGI ([26]; PG=0): >−4.00 log10M | Log10GI50 ([26]; PG=+50): >−4.00 log10M | Log10GI50 ([26]; Table IV (LC50, PG=−50)): >−4.00 log10M | Log10TGI ([27]; PG=0): >−4.00 log10M | Log10GI50 ([27]; PG=+50): >−4.00 log10M | Log10GI50 ([27]; Table IV (LC50, PG=−50)): >−4.00 log10M | Log10TGI ([28]; PG=0): >−4.00 log10M | Log10GI50 ([28]; PG=+50): −4.31 log10M | Log10GI50 ([28]; Table IV (LC50, PG=−50)): >−4.00 log10M | Log10TGI ([29]; PG=0): >−4.00 log10M | Log10GI50 ([29]; PG=+50): >−4.00 log10M | Log10GI50 ([29]; Table IV (LC50, PG=−50)): >−4.00 log10M
